According to publication PMC11550483 (2024):

Biological target: SARS2 M^pro (Severe acute respiratory syndrome coronavirus 2, UniProt P0DTD1, P3395H)
Type: biochemical, SARS-CoV-2

Row | Compound | % inhibition (20 µM) biochemical [%]
1 | CCN(CC)c1ccc(/C=N/n2c(S)nnc2-c2cccnc2)c(O)c1 [MWAC-0001796, CCN(CC)c1ccc(\C=N\n2c(S)nnc2c3cccnc3)c(O)c1] | 9
2 | Cc1ccc(Cn2cc(SCC(=O)NCc3ccco3)c3ccccc32)cc1 [MWAC-0001818, Cc1ccc(Cn2cc(SCC(=O)NCc3occc3)c4ccccc24)cc1] | 3.38
3 | O=C(CCl)Nc1cn(-c2ccccc2)nc1-c1ccc(F)cc1 [MWAC-0001848, Fc1ccc(cc1)c2nn(cc2NC(=O)CCl)c3ccccc3] | 13
4 | Cc1ccc(COc2ccc([N+](=O)[O-])cc2C=O)cc1 [MWAC-0001790, Cc1ccc(COc2ccc(cc2C=O)[N+](=O)[O-])cc1] | 7
5 | CCCN1C(=O)C(O)(CC(=O)c2cc(OC)ccc2OC)c2cc(Br)ccc21 (stereo not shown) [MWAC-0001752, CCCN1C(=O)C(O)(CC(=O)c2cc(OC)ccc2OC)c3cc(Br)ccc13] | 33
6 | COc1ccccc1Nc1nc(-c2ccccn2)cs1 [MWAC-0001885, COc1ccccc1Nc2nc(cs2)c3ccccn3] | 0
7 | Nc1ccc(C(=O)Nc2ccccc2N)cc1 [MWAC-0001836, Nc1ccc(cc1)C(=O)Nc2ccccc2N] | 5
8 | O=Cc1cc(Cl)ccc1OCC(=O)Nc1ccc(F)cc1 [MWAC-0001783, Fc1ccc(NC(=O)COc2ccc(Cl)cc2C=O)cc1] | 4
9 | O=C(NNC(=O)C(c1ccccc1)c1ccccc1)Nc1cccc(Cl)c1 [MWAC-0001779, Clc1cccc(NC(=O)NNC(=O)C(c2ccccc2)c3ccccc3)c1] | 3
10 | COc1ccc(C2=NN3C(C2)c2ccccc2OC3c2ccc(C(C)(C)C)cc2)cc1 (stereo not shown) [MWAC-0001719, COc1ccc(cc1)C2=NN3C(C2)c4ccccc4OC3c5ccc(cc5)C(C)(C)C] | 5
11 | CCOc1ccccc1C1Nc2ccccc2NC2=C1C(=O)CC(c1ccccc1)C2 (stereo not shown) [MWAC-0001718, CCOc1ccccc1C2Nc3ccccc3NC4=C2C(=O)CC(C4)c5ccccc5] | 0
12 | COc1ccc2c(=O)cc(-c3ccc4c(c3)OCCO4)oc2c1 [MWAC-0001860, COc1ccc2C(=O)C=C(Oc2c1)c3ccc4OCCOc4c3] | 100
13 | CC(C)(C)NC(=O)N[C@H](C(=O)N1C[C@H]2[C@@H]([C@H]1C(=O)NC(CC1CCC1)C(=O)C(N)=O)C2(C)C)C(C)(C)C (stereo partly shown) [Boceprevir, reference compound] | 73.0971
14 | Cc1cc(C(=O)CCl)c(C)n1Cc1ccco1 [MWAC-0001817, Cc1cc(C(=O)CCl)c(C)n1Cc2occc2] | 62
15 | Cc1cc(CNC(=O)CCl)cc(C)c1O [MWAC-0001858, Cc1cc(CNC(=O)CCl)cc(C)c1O] | 45
16 | Cc1ccc(Cl)cc1-n1c(SCc2ccccc2Cl)nc2[nH]ncc2c1=O [MWAC-0001740, Cc1ccc(Cl)cc1N2C(=Nc3[nH]ncc3C2=O)SCc4ccccc4Cl] | 9
17 | COc1ccccc1-c1cc(C(F)(F)F)nc(S(=O)(=O)CCCC(=O)Nc2c(F)cc(F)cc2Br)n1 [MWAC-0001726, COc1ccccc1c2cc(nc(n2)S(=O)(=O)CCCC(=O)Nc3c(F)cc(F)cc3Br)C(F)(F)F] | 43
18 | CCOCCCNC(=O)c1ccc(Cl)c([N+](=O)[O-])c1 [MWAC-0001781, CCOCCCNC(=O)c1ccc(Cl)c(c1)[N+](=O)[O-]] | 0
19 | CCOC(=O)c1ccc(NC(=O)N2CCc3ccccc32)cc1 [MWAC-0001787, CCOC(=O)c1ccc(NC(=O)N2CCc3ccccc23)cc1] | 3.21
20 | COc1ccccc1N1CCN(C(=O)CCl)CC1 [MWAC-0001823, COc1ccccc1N2CCN(CC2)C(=O)CCl] | 98
21 | CCCOc1ccc(CN2C(=O)C(=O)c3ccccc32)cc1 [MWAC-0001830, CCCOc1ccc(CN2C(=O)C(=O)c3ccccc23)cc1] | 5
22 | COc1ccc(-c2nnc(SCc3ccc4c(c3)OCO4)n2-c2ccccc2)cc1 [MWAC-0001881, COc1ccc(cc1)c2nnc(SCc3ccc4OCOc4c3)n2c5ccccc5] | 0
23 | CCCCN1C(=O)C(O)(CC(=O)c2cccc(OC)c2)c2cc(Br)ccc21 (stereo not shown) [MWAC-0001744, CCCCN1C(=O)C(O)(CC(=O)c2cccc(OC)c2)c3cc(Br)ccc13] | 10
24 | COc1ccc(C2=NN3C(C2)c2ccccc2OC3C(C)C)cc1 (stereo not shown) [MWAC-0001724, COc1ccc(cc1)C2=NN3C(Oc4ccccc4C3C2)C(C)C] | 7
25 | Fc1nc(F)c(F)c(SC(=S)N2CCOCC2)c1F [MWAC-0001725, Fc1nc(F)c(F)c(SC(=S)N2CCOCC2)c1F] | 3.69
